The record followed here is US7244861B2, “Benzene compound and salt thereof” (Eisai Co., Ltd., priority 2001, dated 2007).

Common to all, as to assay: Measurement of transcriptional activity, GAL4-PPAR LBD chimera / PLAP reporter in CV-1 cells
Common to all, as to format: cell-based

In one assay the target is T1, PPAR α (Homo sapiens, UniProt Q07869).
T1 construct: human PPAR 167–468 (PPAR); expressed in transfected cells; host or cells: CV-1 (ATCC CCL-70)
T1 sequence (Q07869 167-468): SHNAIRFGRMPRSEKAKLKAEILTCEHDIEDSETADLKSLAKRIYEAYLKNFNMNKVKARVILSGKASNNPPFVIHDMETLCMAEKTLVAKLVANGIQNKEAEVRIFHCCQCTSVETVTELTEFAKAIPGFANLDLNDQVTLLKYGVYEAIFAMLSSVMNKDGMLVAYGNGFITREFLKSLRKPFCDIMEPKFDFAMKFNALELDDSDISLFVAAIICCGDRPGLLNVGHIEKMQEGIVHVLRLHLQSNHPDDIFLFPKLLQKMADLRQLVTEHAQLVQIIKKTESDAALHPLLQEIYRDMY
The settings on record: PLAP activity secreted 24 hours after addition of the compound, read-out: Transcriptional activities EC50 PPAR α. The text has this: (§1) Measurement of Transcriptional Activity
(§2) A GAL4-PPAR LBD chimera expression vector was constructed by ligating human PPAR 167–468 (PPAR), 138–440 (NUC-1) and 174–475 (PPAR) amino acid regions (LBD: Ligand Binding Domain) to a yeast transcriptional factor GAL4 1–147 amino acid region. As the reporter gene, PLAP (Placental Alkaline Phosphatase) was used, and this was ligated downstream of a TK promoter containing a 5-copy GAL4 DNA binding element to construct a vector. As host cells, CV-1 (ATCC CCL-70) was used. That is, CV-1 cells were spread at a density of 5×10^5 cells on a 35-mm dish and cultured in 10% FCS/DMEM for 24 hours, and using FuGENE 6 transfection reagent, the cells were co-transfected with the GAL4-PPAR LBD expression vector and GAL4 DBD-TK-PLAP expression vector. 24 hours after this transfection, the cells were spread again on a 96-well plate at a density of 1×10^4/well and further cultured for 24 hours. After 24 hours, the medium was exchanged with DMEM containing 10% FCS, which was previously treated at 65° C. for inactivating intrinsic alkaline phosphatase, and a test compound was added at an arbitrary concentration. The transcriptional activity was determined in terms of PLAP activity secreted 24 hours after addition of the compound, to calculate EC50. The PLAP activity was determined after adding 50 μl assay buffer and 50 μl chemoluminescence substrate to 10 μl culture supernatant and incubating the mixture at room temperature for 1 hour. The transcriptional activities for PPARα, PPARβ(δ) and PPARγ are shown respectively in Table 1.

The next assay concerns the target T2, PPAR β (Homo sapiens, UniProt Q03181).
T2 construct: 138–440 (NUC-1); expressed in transfected cells; host or cells: CV-1 (ATCC CCL-70)
T2 sequence (Q03181 138-440): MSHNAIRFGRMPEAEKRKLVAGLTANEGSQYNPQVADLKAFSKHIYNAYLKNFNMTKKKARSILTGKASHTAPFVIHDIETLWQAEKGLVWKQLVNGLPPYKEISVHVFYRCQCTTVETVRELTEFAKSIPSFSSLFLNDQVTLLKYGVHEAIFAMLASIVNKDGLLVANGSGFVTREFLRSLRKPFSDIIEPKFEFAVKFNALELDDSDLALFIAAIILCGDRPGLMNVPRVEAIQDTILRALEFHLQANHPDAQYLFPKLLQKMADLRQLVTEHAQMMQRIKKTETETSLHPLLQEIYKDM
The conditions noted are these: PLAP activity secreted 24 hours after addition of the compound, read-out: Transcriptional activities EC50 PPAR β.
From the text: as §1, §2

For the next assay, the target named is T3, PPAR γ (Homo sapiens, UniProt P37231).
T3 construct: 174–475 (PPAR) amino acid regions; expressed in transfected cells; host or cells: CV-1 (ATCC CCL-70)
T3 sequence (P37231 174-475 isoform P37231-2): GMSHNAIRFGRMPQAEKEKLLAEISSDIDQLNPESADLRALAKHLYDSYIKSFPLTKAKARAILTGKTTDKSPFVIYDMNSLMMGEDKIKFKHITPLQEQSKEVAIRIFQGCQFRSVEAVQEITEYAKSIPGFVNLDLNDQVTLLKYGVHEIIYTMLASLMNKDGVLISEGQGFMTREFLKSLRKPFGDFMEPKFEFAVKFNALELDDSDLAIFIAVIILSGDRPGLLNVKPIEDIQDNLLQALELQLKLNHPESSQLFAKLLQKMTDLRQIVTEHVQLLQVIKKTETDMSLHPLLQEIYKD
The settings on record: PLAP activity secreted 24 hours after addition of the compound, read-out: Transcriptional activities EC50 PPAR γ.
From the text: as §1, §2

Structures are written as SMILES.

As to `COc1ccc(CC(OC(C)C)C(=O)O)c(OC)c1CNC(=O)c1ccc(OC2CCCC2)cc1Cl` (stereo not drawn) [Example 11, 3-(3-[(2-Chloro-4-cyclopentyloxybenzoyl)amino]methyl-2,4-dimethoxyphenyl)-2-isopropoxypropionic acid], the EC50 on PPAR α is 10.8 nM; on PPAR β it was 1000 nM; on PPAR γ it was 5.8 nM.

Take `CC(C)OC(Cc1cc(CNC(=O)c2ccc(C(F)(F)F)cc2F)c2occc2c1)C(=O)O` (stereo not drawn) [Example 35]: the half-maximal effective concentration (EC50) at PPAR α amounted to 66.5 nM; at PPAR β, 483 nM; at PPAR γ it was 52.4 nM.

Regarding `CC(C)Oc1ccc(C(=O)NCc2cc(CC(OC(C)C)C(=O)O)cc3c2OCC3)c(Cl)c1` (stereo not drawn) [Example 42, 3-(7-[(2-Chloro-4-isopropoxybenzoyl)amino]methyl-2,3-dihydrobenzo[b]furan-5-yl)-2-isopropoxypropionic acid], the EC50 on PPAR α amounted to 17.9 nM; at PPAR β, 1600 nM; on PPAR γ it was 3.4 nM.

Broadly, the EC50 is the concentration giving half of the maximal effect.
